Source: PubChem BioAssay AID248 (DTP/NCI, 2004)
Where “and” joins values, the source holds several entries; their conditions need not be identical. Equal entries are not always repeated. Toxic doses and inconclusive results are not listed. Rule as the data show it: active = T/C of 150% or more; inactive = T/C below 125%.

System: L1210 leukemia ip in BDF1 mice, survival T/C
Assay: NCI In Vivo Anticancer Drug Screen. Data for tumor model L1210 Leukemia (intraperitoneal) in B6D2F1 (BDF1) mice
Settings: endpoint: mean survival time, higher = longer survival
Summary of the method: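 Survival endpoint. Drug-treated group vs vehicle group, expressed as T divided by C. Tumor passaged by transplantation.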

[1] = dose: 100.0 mg/kg/injection, schedule: Q01DX001 (ip), vehicle: saline
[2] = dose: 100.0 mg/kg/injection, schedule: Q01DX009 (ip), vehicle: saline
[3] = dose: 200.0 mg/kg/injection, schedule: Q01DX001 (ip), vehicle: saline
[4] = dose: 100.0 mg/kg/injection, schedule: Q04DX002 (ip), vehicle: saline with Tween-80
[5] = dose: 100.0 mg/kg/injection, schedule: Q01DX009 (ip), vehicle: saline with Tween-80
[6] = dose: 200.0 mg/kg/injection, schedule: Q01DX009 (ip), vehicle: saline with Tween-80
[7] = dose: 400.0 mg/kg/injection, schedule: Q01DX009 (ip), vehicle: saline with Tween-80
[8] = dose: 100.0 mg/kg/injection, schedule: Q04DX003 (ip), vehicle: saline
[9] = dose: 200.0 mg/kg/injection, schedule: Q04DX003 (ip), vehicle: saline
[10] = dose: 400.0 mg/kg/injection, schedule: Q04DX003 (ip), vehicle: saline
[11] = dose: 25.0 mg/kg/injection, schedule: Q01DX009 (ip), vehicle: saline with Tween-80
[12] = dose: 50.0 mg/kg/injection, schedule: Q01DX009 (ip), vehicle: saline with Tween-80
[13] = dose: 100.0 mg/kg/injection, schedule: Q04DX003 (ip), vehicle: saline with Tween-80
[14] = dose: 200.0 mg/kg/injection, schedule: Q04DX003 (ip), vehicle: saline with Tween-80
[15] = dose: 400.0 mg/kg/injection, schedule: Q04DX003 (ip), vehicle: saline with Tween-80
[16] = dose: 100.0 mg/kg/injection, schedule: Q04DX002 (ip), vehicle: Klucel (hydroxypropylcellulose) (HPC)
[17] = dose: 200.0 mg/kg/injection, schedule: Q04DX002 (ip), vehicle: Klucel (hydroxypropylcellulose) (HPC)
[18] = dose: 400.0 mg/kg/injection, schedule: Q04DX002 (ip), vehicle: Klucel (hydroxypropylcellulose) (HPC)
[19] = dose: 400.0 mg/kg/injection, schedule: Q01DX001 (ip), vehicle: saline

Measured: T/C

CC1(C)N=C(N)N=C(N)N1c1cccc(OCCCOc2ccc(NC(=O)CBr)cc2)c1
inactive: dose: 45.0 mg/kg/injection, schedule: Q01DX009 (ip), vehicle: saline 104 % of control | dose: 67.0 mg/kg/injection, schedule: Q01DX009 (ip), vehicle: saline 104 % of control | [1] 110 % of control | [2] 102 % of control | [3] 97 % of control

COc1cc(NC(=O)Nc2ccccc2Cl)c(OC)cc1Cl
inactive: [4] 93 % of control

O=C1CN(C2OC(CO)C(O)C2O)C(=O)NC1=O (stereo not drawn)
inactive: dose: 132.0 mg/kg/injection, schedule: Q01DX Z (ip), vehicle: carboxymethylcellulose (CMC) 107 % of control | dose: 200.0 mg/kg/injection, schedule: Q01DX Z (ip), vehicle: carboxymethylcellulose (CMC) 110 % of control | dose: 299.0 mg/kg/injection, schedule: Q01DX Z (ip), vehicle: carboxymethylcellulose (CMC) 124 % of control | dose: 449.0 mg/kg/injection, schedule: Q01DX Z (ip), vehicle: carboxymethylcellulose (CMC) 107 % of control

C[Si](C)(C)C1C=Cc2ccccc2C1[Si](C)(C)C (stereo not drawn)
inactive: [5] 94 % of control | [6] 91 % of control | [7] 94 % of control

O=[N+]([O-])c1ccc(/C=N/N2CCOCC2)s1
inactive: [8] 102 % of control | [9] 97 % of control | [10] 102 % of control

CN(C)CCNC(=O)N(C)C
inactive: [2] 95 % of control | [8] 92 % of control | dose: 200.0 mg/kg/injection, schedule: Q01DX009 (ip), vehicle: saline 98 % of control | [9] 100 % of control | dose: 400.0 mg/kg/injection, schedule: Q01DX009 (ip), vehicle: saline 102 % of control | [10] 97 % of control

CC(C)(O)C(C)(O)c1ccc(Cl)cc1 (stereo not drawn)
inactive: [11] 93 % of control | dose: 25.0 mg/kg/injection, schedule: Q04DX003 (ip), vehicle: Klucel (hydroxypropylcellulose) (HPC) 101 % of control | [12] 102 % of control | dose: 50.0 mg/kg/injection, schedule: Q04DX003 (ip), vehicle: Klucel (hydroxypropylcellulose) (HPC) 101 % of control | [5] 98 % of control | dose: 100.0 mg/kg/injection, schedule: Q04DX003 (ip), vehicle: Klucel (hydroxypropylcellulose) (HPC) 101 % of control | [6] 104 % of control | dose: 200.0 mg/kg/injection, schedule: Q04DX003 (ip), vehicle: Klucel (hydroxypropylcellulose) (HPC) 106 % of control | [7] 94 % of control | dose: 400.0 mg/kg/injection, schedule: Q04DX003 (ip), vehicle: Klucel (hydroxypropylcellulose) (HPC) 95 % of control

CN1C(=O)CC(NC(=O)OCc2ccccc2)C1=O (stereo not drawn)
inactive: [13] 95 % of control | [14] 103 % of control | [15] 96 % of control

CCCCCCc1nc2nc(Cl)c(Cl)nc2[nH]1
inactive: [11] 93 % of control | dose: 25.0 mg/kg/injection, schedule: Q04DX003 (ip), vehicle: saline with Tween-80 105 % of control | [12] 96 % of control | dose: 50.0 mg/kg/injection, schedule: Q04DX003 (ip), vehicle: saline with Tween-80 98 % of control | [5] 106 % of control | [13] 95 % of control and 103 % of control | dose: 150.0 mg/kg/injection, schedule: Q01DX009 (ip), vehicle: saline with Tween-80 98 % of control

O=C1OCC/C1=C\OCCc1ccccc1
inactive: [16] 98 % of control | [17] 94 % of control | [18] 94 % of control

CCOCc1nc(NC(C)=O)nc(NC(C)=O)c1-c1ccc(Cl)cc1
inactive: dose: 75.0 mg/kg/injection, schedule: Q01DX001 (ip), vehicle: saline with Tween-80 100 % of control | dose: 150.0 mg/kg/injection, schedule: Q01DX001 (ip), vehicle: saline with Tween-80 96 % of control

CCc1c2cc3c(cc2cc2c4cc5c(cc4cc[n+]12)OCO5)OCO3 (tested in a mixture with another compound)
inactive: dose: 3.13 mg/kg/injection, schedule: Q01DX009 (ip), vehicle: Klucel (hydroxypropylcellulose) (HPC) 122 % of control | dose: 3.13 mg/kg/injection, schedule: Q04DX003 (ip), vehicle: Klucel (hydroxypropylcellulose) (HPC) 113 % of control | dose: 6.25 mg/kg/injection, schedule: Q01DX009 (ip), vehicle: Klucel (hydroxypropylcellulose) (HPC) 110 % of control | dose: 6.25 mg/kg/injection, schedule: Q04DX003 (ip), vehicle: Klucel (hydroxypropylcellulose) (HPC) 110 % of control | dose: 12.5 mg/kg/injection, schedule: Q04DX003 (ip), vehicle: Klucel (hydroxypropylcellulose) (HPC) 113 % of control and 115 % of control

COC(=O)c1cccc(C)n1
inactive: [1] 94 % of control | [8] 104 % of control | [3] 100 % of control | [9] 97 % of control | [19] 96 % of control | [10] 92 % of control

Cc1nc(NC(=O)CBr)[nH]c(=O)c1CCC(C)C
inactive: [13] 107 % of control | [14] 100 % of control | [15] 88 % of control

NC(=S)N/N=C/c1ccccc1O
inactive: dose: 50.0 mg/kg/injection, schedule: Q01DX001 (ip), vehicle: carboxymethylcellulose (CMC) 96 % of control | dose: 100.0 mg/kg/injection, schedule: Q01DX001 (ip), vehicle: carboxymethylcellulose (CMC) 104 % of control | [4] 90 % of control | dose: 200.0 mg/kg/injection, schedule: Q01DX001 (ip), vehicle: carboxymethylcellulose (CMC) 91 % of control | dose: 200.0 mg/kg/injection, schedule: Q04DX002 (ip), vehicle: saline with Tween-80 104 % of control | dose: 400.0 mg/kg/injection, schedule: Q01DX001 (ip), vehicle: carboxymethylcellulose (CMC) 91 % of control | dose: 400.0 mg/kg/injection, schedule: Q04DX002 (ip), vehicle: saline with Tween-80 93 % of control

Cc1ccc(C(O)c2nnc(C(O)c3ccc(C)cc3)nn2)cc1 (stereo not drawn)
inactive: [16] 88 % of control and 107 % of control and 100 % of control | [17] 100 % of control and 96 % of control | [18] 96 % of control and 100 % of control

[O-]c1c[n+](-c2ccc3ccccc3c2)no1
inactive: dose: 100.0 mg/kg/injection, schedule: Q04DX003 (ip), vehicle: carboxymethylcellulose (CMC) 114 % of control | dose: 200.0 mg/kg/injection, schedule: Q04DX003 (ip), vehicle: carboxymethylcellulose (CMC) 110 % of control | dose: 400.0 mg/kg/injection, schedule: Q04DX003 (ip), vehicle: carboxymethylcellulose (CMC) 104 % of control

COc1cc(C(Br)C(Br)C(=O)c2ccccc2[N+](=O)[O-])cc(OC)c1OC (stereo not drawn)
inactive: dose: 100.0 mg/kg/injection, schedule: Q01DX009 (ip), vehicle: Klucel (hydroxypropylcellulose) (HPC) 95 % of control | dose: 200.0 mg/kg/injection, schedule: Q01DX009 (ip), vehicle: Klucel (hydroxypropylcellulose) (HPC) 95 % of control | dose: 400.0 mg/kg/injection, schedule: Q01DX009 (ip), vehicle: Klucel (hydroxypropylcellulose) (HPC) 94 % of control

O=C(N/N=C/c1ccc(O)cc1O)c1cccc2ccccc12
inactive: [1] 92 % of control | [3] 100 % of control | [19] 92 % of control

CC(=O)N/N=C(/C)c1cccs1
inactive: [1] 103 % of control | [3] 109 % of control | [19] 100 % of control

O=C(Nc1ccc(C2=NCCN2)cc1)c1ccc(C(=O)Nc2ccc(C3=NCCN3)cc2)o1
active: dose: 120.0 mg/kg/injection, schedule: Q01DX Z (ip), vehicle: carboxymethylcellulose (CMC) 248 % of control | dose: 240.0 mg/kg/injection, schedule: Q01DX Z (ip), vehicle: saline 252 % of control
inactive: dose: 15.0 mg/kg/injection, schedule: Q01DX Z (ip), vehicle: carboxymethylcellulose (CMC) 113 % of control | dose: 30.0 mg/kg/injection, schedule: Q01DX Z (ip), vehicle: carboxymethylcellulose (CMC) 120 % of control | dose: 480.0 mg/kg/injection, schedule: Q01DX Z (ip), vehicle: saline 111 % of control
